This is an account of results in patent US11149062B2, “HDAC inhibitors and methods of treatment using the same” (UWM Research Foundation, Inc., priority 2015, dated 2021).

pIC50: −log10 of the molar value. A value given as a limit tells only on which side of the number the result lay.

The target in one assay is T1, Recombinant human HDAC2 (Homo sapiens, UniProt Q92769).
T1 construct: purchased BPS Bioscience Inc
The experiment in a line: HDAC-Glo I/II assay, HDAC2. Type of assay: biochemical. As to conditions: Class I HDAC; compounds reduced by TCEP prior to assay. As to the method:
(§1) The purified compounds of all fragments and natural product derivatives were evaluated for inhibitory effects on three different classes of HDAC proteins (class I, IIa, and IIb). […] All activity was determined by using a fluorescence-based in vitro assay. Class I HDAC proteins that were evaluated were HDAC1, HDAC2, HDAC3, HDAC8, HDAC4, and HDAC6. Class IIa HDAC protein were HDAC4 and the Class IIb HDAC protein were HDAC6.
(§2) HDAC-Glo™ I/II Assay and Screening System (Promega) was used to determine the HDAC inhibitory activity. Recombinant human HDAC1, HDAC2, HDAC3, HDAC4, HDAC6 and HDAC8 were purchased from BPS Bioscience Inc. The inhibitory activities of the test compounds against recombinant HDAC were performed according to reagent suppliers' protocols.
(§3) All test compounds were firstly dissolved in DMSO to make 10 mM stock solution. A certain amount of stock solution was diluted to 1 mM by DMSO and then reduced by tris(2-carboxyethyl)phosphine hydrochloride (TCEP) in a molar ration of 1:1.5 for 20 min at ambient temperature prior to being assayed. After reduction, a series of fivefold dilutions of each reduced compound were prepared with HDAC-Glo buffer and 25 μL of each dilution was added into a well on a 96-well plate. HDAC enzymes were diluted to the desired concentrations with HDAC-Glo buffer and 25 μL of each diluted enzyme was dispensed into a well to mix with 25 μL of testing compound at room temperature for 30-60 seconds. After the reaction mixture had been incubated at room temperature for 1 hour, 50 μL of HDAC-Glo reagent was added to each reaction well and mixed up for 30-60 seconds. Finally, the plate was incubated at room temperature for an additional 30 minutes before the luminescence was measured on a Synergy HT plate reader (Bio-Tek). The luminescence intensity data were analyzed using GraphPad Prism 5 (GraphPad Software). In the absence of any test compound, the luminescence intensity (I100) in each data set was defined as 100% activity. In the absence of both of HDAC enzymes and test compound, the luminescence intensity (I0) in each data set was defined as 0% activity. The relative activity (%) in the presence of each compound was calculated according to the following equation: % activity=(I−I0)/(I100−I0), where I=the luminescence intensity if a compound is present in the reaction. Experiments were performed in triplicate and the calculated mean values were used for plotting.

The next assay has as its target T2, Recombinant human HDAC4 (Homo sapiens, UniProt P56524).
T2 construct: purchased BPS Bioscience Inc
The assay can be described thus: HDAC-Glo I/II assay, HDAC4. To be noted: Class IIa HDAC; compounds reduced by TCEP prior to assay; read-out: IC50 of HDAC4. Format: biochemical. The protocol: as §1, §2, §3

For assay [1], the system named is colon (HCT-116), cervical (HeLa), and renal (RFX393) tumor cell lines. The assay can be described thus: MTT antiproliferative assay, all three tumor cell lines. Type of assay: cell-based. As to conditions: HCT-116, HeLa, RFX393; summary of Table 3; read-out: GI50 values against all three tumor cell lines.
For a further assay, the system named is HCT-116 (colon cancer). The experiment in a line: MTT antiproliferative assay, HCT-116. Format: cell-based. As to conditions: Homo sapiens, HCT-116; MTT, 48 h; read-out: Antiproliferative Activity GI50, Colon HCT-116. In general terms: Tetrazolium assays rely on reduction of a dye to a coloured formazan, in cell work by metabolically active cells.
In the next assay the test system is HeLa (cervical cancer). The assay can be described thus: MTT antiproliferative assay, HeLa. Format: cell-based. As to conditions: Homo sapiens, MTT, 48 h, read-out: Antiproliferative Activity GI50, Cervical HeLa.
The target of a further assay is T3, Recombinant human HDAC3 (Homo sapiens, UniProt O15379).
T3 construct: purchased BPS Bioscience Inc
T3 sequence (O15379 whole entry): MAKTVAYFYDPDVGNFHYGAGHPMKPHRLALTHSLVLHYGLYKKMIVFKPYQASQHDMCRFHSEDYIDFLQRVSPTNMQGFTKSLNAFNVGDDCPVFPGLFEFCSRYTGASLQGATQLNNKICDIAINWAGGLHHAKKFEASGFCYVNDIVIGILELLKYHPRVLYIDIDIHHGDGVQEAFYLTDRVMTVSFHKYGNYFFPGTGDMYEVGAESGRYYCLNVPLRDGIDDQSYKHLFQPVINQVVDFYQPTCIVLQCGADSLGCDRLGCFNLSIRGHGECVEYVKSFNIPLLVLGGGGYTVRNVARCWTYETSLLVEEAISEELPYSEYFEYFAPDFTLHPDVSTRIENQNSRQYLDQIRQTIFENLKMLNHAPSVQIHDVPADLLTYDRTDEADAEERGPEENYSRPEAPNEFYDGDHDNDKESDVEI
T3 sequence (Q9Y618 395-489 partner limits assumed): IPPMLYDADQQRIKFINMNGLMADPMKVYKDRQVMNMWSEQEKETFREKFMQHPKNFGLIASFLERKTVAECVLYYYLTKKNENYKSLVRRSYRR
The assay can be described thus: HDAC-Glo I/II assay, HDAC3. Format: biochemical. As to conditions: Class I HDAC; compounds reduced by TCEP prior to assay. The protocol: as §1, §2, §3

Another assay addresses T4, Recombinant human HDAC8 (Homo sapiens, UniProt Q9BY41).
T4 construct: purchased BPS Bioscience Inc
T4 sequence (Q9BY41 1-377): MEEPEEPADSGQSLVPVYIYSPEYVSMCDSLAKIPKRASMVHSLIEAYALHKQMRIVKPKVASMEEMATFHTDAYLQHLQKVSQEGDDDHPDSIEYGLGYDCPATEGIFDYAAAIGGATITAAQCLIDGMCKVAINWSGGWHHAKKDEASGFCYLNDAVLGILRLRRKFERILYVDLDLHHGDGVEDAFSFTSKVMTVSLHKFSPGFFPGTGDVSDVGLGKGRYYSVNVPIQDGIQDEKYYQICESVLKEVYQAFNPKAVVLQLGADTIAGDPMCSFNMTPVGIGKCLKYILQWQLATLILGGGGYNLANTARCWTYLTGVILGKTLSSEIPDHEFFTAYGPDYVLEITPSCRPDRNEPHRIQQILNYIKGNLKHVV
The assay can be described thus: HDAC-Glo I/II assay, HDAC8. Format: biochemical. As to conditions: Class I HDAC; compounds reduced by TCEP prior to assay. The protocol: as §1, §2, §3

T2 sequence (P56524 whole entry): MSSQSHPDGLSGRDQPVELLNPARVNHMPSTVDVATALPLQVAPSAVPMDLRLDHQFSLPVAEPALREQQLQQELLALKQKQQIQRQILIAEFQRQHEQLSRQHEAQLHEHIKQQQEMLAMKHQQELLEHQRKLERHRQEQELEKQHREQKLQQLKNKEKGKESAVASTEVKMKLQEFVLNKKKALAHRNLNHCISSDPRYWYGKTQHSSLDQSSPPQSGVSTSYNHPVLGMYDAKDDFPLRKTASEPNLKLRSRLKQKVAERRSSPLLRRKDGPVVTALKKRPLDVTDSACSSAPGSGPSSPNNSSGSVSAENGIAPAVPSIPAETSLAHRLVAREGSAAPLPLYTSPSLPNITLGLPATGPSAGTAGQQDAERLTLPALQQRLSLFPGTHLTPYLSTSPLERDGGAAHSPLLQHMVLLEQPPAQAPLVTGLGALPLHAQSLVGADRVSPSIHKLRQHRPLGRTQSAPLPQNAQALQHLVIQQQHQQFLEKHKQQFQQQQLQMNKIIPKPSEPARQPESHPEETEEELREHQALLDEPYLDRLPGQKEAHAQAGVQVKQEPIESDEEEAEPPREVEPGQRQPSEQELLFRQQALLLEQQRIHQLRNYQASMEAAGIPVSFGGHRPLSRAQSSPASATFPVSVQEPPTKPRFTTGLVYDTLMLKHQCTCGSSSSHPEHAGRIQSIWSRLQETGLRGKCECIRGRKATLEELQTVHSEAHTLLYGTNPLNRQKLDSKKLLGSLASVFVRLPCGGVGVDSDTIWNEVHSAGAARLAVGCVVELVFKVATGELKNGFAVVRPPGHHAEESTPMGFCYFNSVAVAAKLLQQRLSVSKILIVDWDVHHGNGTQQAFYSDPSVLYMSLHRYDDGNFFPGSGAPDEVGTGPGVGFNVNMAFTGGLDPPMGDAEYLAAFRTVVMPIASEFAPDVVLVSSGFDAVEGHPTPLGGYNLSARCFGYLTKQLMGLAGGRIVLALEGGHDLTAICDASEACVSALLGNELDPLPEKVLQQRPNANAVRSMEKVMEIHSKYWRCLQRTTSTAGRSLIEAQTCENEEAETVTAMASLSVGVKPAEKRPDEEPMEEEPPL
T1 sequence (Q92769 whole entry): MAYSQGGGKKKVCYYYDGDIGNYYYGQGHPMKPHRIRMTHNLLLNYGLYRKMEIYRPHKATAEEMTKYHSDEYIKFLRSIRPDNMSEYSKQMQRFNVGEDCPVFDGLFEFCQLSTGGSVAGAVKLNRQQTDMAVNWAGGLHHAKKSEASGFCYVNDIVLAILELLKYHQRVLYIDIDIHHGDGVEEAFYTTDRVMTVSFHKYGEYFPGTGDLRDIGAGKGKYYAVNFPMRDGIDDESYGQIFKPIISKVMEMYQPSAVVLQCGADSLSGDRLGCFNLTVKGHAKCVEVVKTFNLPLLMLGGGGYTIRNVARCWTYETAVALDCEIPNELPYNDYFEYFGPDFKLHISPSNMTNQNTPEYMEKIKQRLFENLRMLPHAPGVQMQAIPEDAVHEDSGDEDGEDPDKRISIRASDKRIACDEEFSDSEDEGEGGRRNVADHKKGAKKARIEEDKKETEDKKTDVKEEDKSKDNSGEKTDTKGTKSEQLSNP

With `CSCC[C@H]1NC(=O)CC(O)/C=C/CCSSC[C@H](C(=O)O)NC1=O` (stereo partly drawn) [TDF3, (4S,7R,12E)-11-hydroxy-7-[2-(methylsulfanyl)ethyl]-6,9-dioxo-1,2-dithia-5,8-diazacyclopentadec-12-ene-4-carboxylic acid], the pIC50 is 7.06 on Recombinant human HDAC2, less than 3.00 on Recombinant human HDAC4, 6.09 at Recombinant human HDAC3 and 4.20 on Recombinant human HDAC8. Besides, the GI50 was 0.6 µM in assay [1], 0.3 µM with HCT-116 (colon cancer) and 0.6 µM with HeLa (cervical cancer).

Consider `COC(=O)[C@H]1CSSCC/C=C/C(O)CC(=O)N[C@H](CCSC)C(=O)N1` (stereo partly drawn) [TDF3m, Methyl (4S,7R,12E)-11-hydroxy-7-[2-(methylsulfanyl)ethyl]-6,9-dioxo-1,2-dithia-5,8-diazacyclopentadec-12-ene-4-carboxylate], for which the negative-log IC50 (pIC50) on Recombinant human HDAC2 was 7.03; on Recombinant human HDAC4 it was less than 3.00; at Recombinant human HDAC3, 6.21; at Recombinant human HDAC8, 4.20. Also, the GI50 in assay [1] came out at 0.4 µM; with HCT-116 (colon cancer) it was 0.2 µM; in the assay with HeLa (cervical cancer), 0.4 µM.

For orientation: pIC50 means the IC50 on a negative log10 scale, so that one unit is a factor of ten. Broadly, the GI50 is the concentration giving 50% growth inhibition.
